Measurements as given in patent publication US10059950B2, “Compositions comprising an internalizing nucleic acid molecule, and their methods of use” (B3 BIO, INC., priority 2012, dated 2018).
In the oligonucleotide strings, read from the 5' end, every base follows the letter of its sugar. An asterisk marks phosphorothioate; unmarked linkages are phosphodiester. Other units and linkages are bracketed, terminal groups are in braces. A string of capitals states the bases alone. r = 2'-OH (RNA); f = 2'-fluoro

Legend:
[1] = test system: human prostate cancer cell line PC-3; experiment: Flow cytometric-based screening assay for internalization in PC-3 cells; type: cell-based
Method: In illustrating a screening process for internalization, from clones selected for further analysis from the selection process, a flow cytometric-based assay for binding and/or internalization was utilized. Typically, the assay was performed by incubating 200 nM of each clone with 5×10^5 target cells in 100 ul PBS containing 0.5% bovine serum albumin (BSA) in a 13 mm tube for 2 hours @ 37° C. A first portion of the cells was then treated with RNAse to remove any of the clone remaining bound to the surface of the cells, so as to allow detection and quantitation of internalized clone (i.e., measuring internalization). In parallel, a second portion of the cells was treated with PBS containing 0.5% BSA (lacking added RNase activity to enzymatically cleave […]), so as to allow detection and quantitation of clone remaining bound to the cell surface, as well as internalized clone (i.e., measuring binding and internalization). Following further washes with phosphate-buffered saline, the cells were fixed in 1% formaldehyde and then subjected to analysis on a flow cytometer using commercially available analysis software. In performing analyses by flow cytometry, several assay controls were used. As an assay control representing either no or background (e.g., non-specific) internalization, an RNA molecule resulting from a selection process for binding a molecule not detectably expressed on target cells was used. The assay control RNA molecule was further modified with Alexa 647, and then used for further characterization of clones from the selection process described herein. For ease of description and reference for this Example, this assay control RNA molecule is referred to herein as Negative Control 1 (see, e.g., Table 5). As an additional assay control that represents either no or background internalization, used was an RNA molecule from the starting library which was chosen from the library prior to beginning a selection method described herein, and that was further modified with Alexa 647. This assay control RNA molecule is referred to herein as Negative Control 2 (see, e.g., Tables 5, 7, and 8). Additionally, fluorescence of unstained cells was measured, as a control, to quantitate any background fluorescent properties of the cells themselves as encountered in analyses by flow cytometry (“Unstained”), as opposed to fluorescent signal mediated by the RNA molecules further modified to include Alexa 647. Shown in Table 5 are the results of analyses by flow cytometry in which measured and quantitated was the ability of clones, selected on the basis of sequence convergence, to internalize into target cells represented by human prostate cancer cell line PC-3. The units of fluorescence in Table 5 represent mean fluorescence (“Mean”). The fold increase (determined by dividing the mean fluorescence of a clone by the mean fluorescence of unstained cells) is an indicator of the ability of a clone, or a clone which has been further modified to include an effector moiety, to internalize into the target cells (Table 5; “Fold Increase”).
The truncations, illustrated in Table 6, were each further modified with a detectable moiety, Alexa 647, and analyzed by a flow cytometric-based screening assay for internalization using the methods outlined in Example 2, to determine minimal sequences that maintain the full ability to internalize into human prostate cancer cells. Shown in Table 7 are the results of analyses by flow cytometry in which measured and quantitated was the ability of each truncation to internalize into target cells represented by human prostate cancer cell line PC-3. The units of fluorescence in Table 7 represent mean fluorescence intensity (“Mean”). […]

[2] = test system: K562 human chronic myelogenous leukemia; experiment: Flow cytometric binding and internalization assay, K562; type: cell-based; details: K562, malignant
Method: (§1) In illustrating a screening process for internalization, from clones selected for further analysis from the selection process, a flow cytometric-based assay for binding and/or internalization was utilized. Typically, the assay was performed by incubating 200 nM of each clone with 5×10^5 target cells in 100 ul PBS containing 0.5% bovine serum albumin (BSA) in a 13 mm tube for 2 hours @ 37° C. A first portion of the cells was then treated with RNAse to remove any of the clone remaining bound to the surface of the cells, so as to allow detection and quantitation of internalized clone (i.e., measuring internalization). In parallel, a second portion of the cells was treated with PBS containing 0.5% BSA (lacking added RNase activity to enzymatically cleave […]), so as to allow detection and quantitation of clone remaining bound to the cell surface, as well as internalized clone (i.e., measuring binding and internalization). […] Additionally, fluorescence of unstained cells was measured, as a control, to quantitate any background fluorescent properties of the cells themselves as encountered in analyses by flow cytometry (“Unstained”), as opposed to fluorescent signal mediated by the RNA molecules further modified to include Alexa 647. […] The units of fluorescence in Table 5 represent mean fluorescence (“Mean”). […]

[3] = test system: A549 human lung adenocarcinoma; experiment: Flow cytometric binding and internalization assay, A549; type: cell-based; details: A549, malignant
Method: as §1

[4] = test system: MCF7 human breast adenocarcinoma; experiment: Flow cytometric binding and internalization assay, MCF7; type: cell-based; details: MCF7, malignant
Method: as §1

[5] = test system: WIL-2 B lymphoblastoid cell line transformed with Epstein Barr virus; experiment: Flow cytometric binding and internalization assay, WIL-2; type: cell-based, human; details: WIL-2, transformed cells
Method: as §1

[6] = test system: PrEC human primary prostate epithelial cells; experiment: Flow cytometric binding and internalization assay, PrEC; type: cell-based; details: nonmalignant
Method: as §1

[7] = Table 7, truncations modified with Alexa 647, PC-3
[8] = Table 8, mutants of E3-45, PC-3

Molecule: GGGAGGCUGGGCUUUCGGCAAC (rGrGrGrArGrGfCfUrGrGrGfCfUfUfUfCrGrGfCrArAfC; aptamer; Alexa 647 label attached, position not given here, further chemistry not fully specified) [E3-22, truncation of iNA E3, 22 bases]
- Fold increase (mean fluorescence intensity / unstained cells) [1, 7]: 1.0
- Mean (mean fluorescence intensity) [1, 7]: 80.7

Molecule: GGGAGGCUUUCGGGCUUUCGGCAACAUCAGCC (rGrGrGrArGrGfCfUfUfUfCrGrGrGfCfUfUfUfCrGrGfCrArAfCrAfUfCrArGfCfC; aptamer; Alexa 647 label attached, position not given here, further chemistry not fully specified) [E3-32, truncation of iNA E3, 32 bases]
- Fold increase (mean fluorescence intensity / unstained cells) [1, 7]: 11.8
- Mean (mean fluorescence intensity) [1, 7]: 944

Molecule: GGGUGCGGUACUUUCGGGCUUUCGGCAACAUCAGCCCCUCAGGACG (rGrGrGfUrGfCrGrGfUrAfCfUfUfUfCrGrGrGfCfUfUfUfCrGrGfCrArAfCrAfUfCrArGfCfCfCfCfUfCrArGrGrAfCrG; aptamer; Alexa 647 label attached, position not given here, further chemistry not fully specified) [E3-45, truncation of iNA E3, 45 bases; wildtype for mutants 1-8]
- Fold increase (mean fluorescence intensity / unstained cells) [1, 7]: 8.6
- Mean (mean fluorescence intensity) [1, 7]: 690
- Fold increase (mean fluorescence intensity / unstained cells) [1, 8]: 5.4
- Mean (mean fluorescence intensity) [1, 8]: 470

Molecule: mutant 1: assay control mutant of E3-45, mutation in a loop not containing the conserved motif UUUCGG (GGGUGCGAAACUUUCGGGCUUUCGGCAACAUCAGCCCCUCAGACCG; listed as RNA, chemistry not fully specified)
- ability to bind and internalize as compared to wildtype iNA (E3-45) ([1]; PC-3, in words): ability to internalize equally
- Fold increase (mean fluorescence intensity / unstained cells) [1, 8]: 4.7
- Mean (mean fluorescence intensity) [1, 8]: 405

Molecule: mutant 2: mutant of E3-45 with the conserved motif UUUCGG mutated in a loop portion (GGGUGCGGUACUAAAGGGCUUUCGGCAACAUCAGCCCAAAAGGACG; aptamer; listed as RNA, chemistry not fully specified)
- ability to bind and internalize as compared to wildtype iNA (E3-45) ([1]; PC-3, in words): loss of the ability to bind and internalize
- Fold increase (mean fluorescence intensity / unstained cells) [1, 8]: 1.5
- Mean (mean fluorescence intensity) [1, 8]: 127

Molecule: mutant 3: mutant of E3-45 with the conserved motif UUUCGG mutated in a loop portion (GGGUGCGGUACUUUCGGGCUAAAGGCAACAUCAGCCCCUCAGGACG; aptamer; listed as RNA, chemistry not fully specified)
- ability to bind and internalize as compared to wildtype iNA (E3-45) ([1]; PC-3, in words): loss of the ability to bind and internalize
- Fold increase (mean fluorescence intensity / unstained cells) [1, 8]: 1.6
- Mean (mean fluorescence intensity) [1, 8]: 142

Molecule: mutant 4: mutant of E3-45 with the conserved motif UUUCGG mutated in a loop portion (GGGUGCGGUACUUUCGGGCUUUCAAAAACAUCAGCCCCUCAGGACG; aptamer; listed as RNA, chemistry not fully specified)
- ability to bind and internalize as compared to wildtype iNA (E3-45) ([1]; PC-3, in words): loss of the ability to bind and internalize
- Fold increase (mean fluorescence intensity / unstained cells) [1, 8]: 2.0
- Mean (mean fluorescence intensity) [1, 8]: 176

Molecule: mutant 5: site-directed mutant of E3-45 in a loop portion containing a conserved motif (GGGUGCGGUACUUUCGGGCUUUCGGCUUUAUCAGCCCCUCAGGACG; listed as RNA, further chemistry not given here)
- Fold increase (mean fluorescence intensity / unstained cells) [1, 8]: 1.9
- Mean (mean fluorescence intensity) [1, 8]: 164

Molecule: mutant 6: site-directed mutant of E3-45 in a loop portion containing a conserved motif (GGGUGCGGUACUUUCGGGCUUUCGGCCCCAUCAGCCCCUCAGGACG; listed as RNA, further chemistry not given here)
- Fold increase (mean fluorescence intensity / unstained cells) [1, 8]: 1.9
- Mean (mean fluorescence intensity) [1, 8]: 167

Molecule: mutant 7: site-directed mutant of E3-45 in a loop portion containing a conserved motif (GGGUGCGGUACUUUCGGGCUUUCGGCAACUAUAGCCCCUCAGGACG; listed as RNA, further chemistry not given here)
- Fold increase (mean fluorescence intensity / unstained cells) [1, 8]: 1.8
- Mean (mean fluorescence intensity) [1, 8]: 153

Molecule: mutant 8: mutant of E3-45 with loop portion mutated to 5′ to 3′ UUUCGAG (GGGUGCGGUACUUUCGGGCUGGCACUUUCGAAAGCCCCUCAGGACG; listed as RNA, chemistry not fully specified)
- ability to bind and internalize as compared to wildtype iNA (E3-45) ([1]; PC-3, in words): loss of binding and internalization
- Fold increase (mean fluorescence intensity / unstained cells) [1, 8]: 1.5
- Mean (mean fluorescence intensity) [1, 8]: 130

B1: GGGAGGACGAUGCGGUACUUUCGGGCUUUCGGCAACAUCAGCCCCUCAGGACGCAAUUUCUC (nucleic acid)
chain: rGrGrGrArGrGrAfCrGrAfUrGfCrGrGfUrAfCfUfUfUfCrGrGrGfCfUfUfUfCrGrGfCrArAfCrAfUfCrArGfCfCfCfCfUfCrArGrGrAfCrGfCrArAfUfUfUfCfUfC
modifications: Alexa 647 label attached, position not given here, further chemistry not fully specified
notes: truncation of iNA E3, 62 bases
- Fold increase (mean fluorescence intensity / unstained cells) [1, 7]: 10.7
- Mean (mean fluorescence intensity) [1, 7]: 858

B2: D11: RNA iNA clone from Round 14 toggle selection, variable region SEQ ID NO:20 UCCCCGGAUUUCGGAUACGAUCCCUCAUCCCUUGACCGCA, 2′ fluoro pyrimidines (nucleic acid)
chain: rGrGrGrArGrGrAfCrGrAfUrGfCrGrGfUfCfCfCfCrGrGrAfUfUfUfCrGrGrAfUrAfCrGrAfUfCfCfCfUfCrAfUfCfCfCfUfUrGrAfCfCrGfCrArAfUfUfUfCfUfCfCfUrAfCfUrGrGrGrAfUrArGrGfUrGrGrAfUfUrAfU
modifications: Alexa 647 attached for internalization assay, further chemistry not fully specified
- internalization into cells (conclusion from Table 5) ([1]; PC-3, in words): mediate internalization into cells
- Fold Increase (mean fluorescence of clone / unstained cells) ([1]; Table 5, 200 nM Alexa 647-modified clone, 2 hours @ 37° C., PC-3): 5.8
- Mean (mean fluorescence) ([1]; Table 5, 200 nM Alexa 647-modified clone, 2 hours @ 37° C., flow cytometry, PC-3): 460
- Fold increase ([1]; Table 9, PC3, malignant): 5.8
- Fold increase [2]: 19.0
- Fold increase [3]: 3.2
- Fold increase [4]: 11.7
- Fold increase [5]: 11.4
- Fold increase [6]: 2.7
